Test results taken from patent US20070203066A1, “Compositions and methods for inhibiting cellular proliferation” (priority 2005, published 2007).
pIC50: −log10 of the molar value. Starred links: 1 amine or outer side, 2 acyl side, 3 side chain; linkers in the order of their positions; H or OH if unused. Positions of bridges follow the written chain, without caps; N, C: chain ends. Non-standard residues stand in square brackets, D forms with d. Residues, ends and D or L forms follow the SMILES beside them. Primed or numbered codes have the meaning given here. Chains are numbered I, II in the order given. No end group written: not given here. *: point of attachment. Ida = iminodiacetic acid linker, its two carboxyls bind the Lys side-chain amines of two peptides, giving a homodimer; Ida(3) = iminodiacetic acid linker, Lys side-chain amines bound to its two carboxyl groups; Ida″ = iminodiacetic acid linker bound to the Lys side-chain amine, forming a dimer; X1 = CC(C)(C)OC(=O)NCCC(=O)N(CCC(=O)[*:1])CCN(CCC(=O)[*:2])C(=O)CCNC(=O)OC(C)(C)C; Biotin = O=C1N[C@H]2[C@H](CS[C@H]2CCCCC(=O)*)N1; Cha = N[C@@H](CC1CCCCC1)C(=O)O

system: HUVECs; assay type: cell-based; conditions: 48 h
Method in brief: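 HUVECs seeded at 5,000 cells/well in EBM with 2% FCS, adhered ≥12 hours, then stimulated with bFGF 10 ng/ml or VEGF 5 ng/ml plus varying peptide concentrations. After 48 hours at 37 ° C, 5% CO2, proliferation inhibition read by BrdU incorporation.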

Going from CC[C@H](C)[C@H](NC(=O)[C@H](C)NC(=O)[C@@H](NC(=O)[C@H](CCCNC(=N)N)NC(=O)[C@H](CCC(N)=O)NC(=O)[C@H](CCCNC(=N)N)NC(=O)[C@H](CCCNC(=N)N)NC(=O)[C@H](CCCNC(=N)N)NC(=O)[C@H](CCCNC(=N)N)NC(=O)[C@H](C)NC(C)=O)C(C)C)C(=O)N[C@@H](Cc1ccc(O)cc1)C(=O)N[C@@H](CCC(=O)O)C(=O)N[C@@H](CCCCNC(=O)CN(CC(=O)NCCCC[C@H](NC(=O)[C@H](CCC(=O)O)NC(=O)[C@H](Cc1ccc(O)cc1)NC(=O)[C@@H](NC(=O)[C@H](C)NC(=O)[C@@H](NC(=O)[C@H](CCCNC(=N)N)NC(=O)[C@H](CCC(N)=O)NC(=O)[C@H](CCCNC(=N)N)NC(=O)[C@H](CCCNC(=N)N)NC(=O)[C@H](CCCNC(=N)N)NC(=O)[C@H](CCCNC(=N)N)NC(=O)[C@H](C)NC(C)=O)C(C)C)[C@@H](C)CC)C(N)=O)C(=O)CCNC(=O)OC(C)(C)C)C(N)=O [Peptide 346] to CC[C@H](C)[C@H](NC(=O)[C@H](C)NC(=O)[C@@H](NC(=O)[C@H](CCCNC(=N)N)NC(=O)[C@H](CCC(N)=O)NC(=O)[C@H](CCCNC(=N)N)NC(=O)[C@H](CCCNC(=N)N)NC(=O)[C@H](CCCNC(=N)N)NC(=O)[C@H](CCCNC(=N)N)NC(=O)[C@H](C)NC(C)=O)C(C)C)C(=O)N[C@@H](Cc1ccc(O)cc1)C(=O)N[C@@H](Cc1ccccc1)C(=O)N[C@@H](CCCCNC(=O)CCN(CCN(CCC(=O)NCCCC[C@H](NC(=O)[C@H](Cc1ccccc1)NC(=O)[C@H](Cc1ccc(O)cc1)NC(=O)[C@@H](NC(=O)[C@H](C)NC(=O)[C@@H](NC(=O)[C@H](CCCNC(=N)N)NC(=O)[C@H](CCC(N)=O)NC(=O)[C@H](CCCNC(=N)N)NC(=O)[C@H](CCCNC(=N)N)NC(=O)[C@H](CCCNC(=N)N)NC(=O)[C@H](CCCNC(=N)N)NC(=O)[C@H](C)NC(C)=O)C(C)C)[C@@H](C)CC)C(N)=O)C(=O)CCNC(=O)OC(C)(C)C)C(=O)CCNC(=O)OC(C)(C)C)C(N)=O [Peptide 331] (I: Ac-ARRRRQRVAIYFK-NH2 / II: Ac-ARRRRQRVAIYFK-NH2; linker I:13-II:13 via X1; C-terminus assumed), the pIC50 rises from < 4.52 to > 5.00.

same assay, conditions: HUVEC proliferation, bFGF at 10 ng/ml or VEGF at 5 ng/ml, 48 hours, BrdU incorporation; read-out: IC50 on HUVECs

“304 (Ac-RRRRRQAVRIDIDFK(Ida)-NH2; also: homodimer via Ida linker on Lys15 side chain) [compound 304]” and “187 (Ac-RRRHRQRVRIIF; also: dimer: C-terminal Phe bound to an amino group of a Lys linker, 2 chains per Lys) [compound 187]” cannot be ordered by pIC50: > 5.00 for the first, > 5.00 for the second.

Going from “459 (Ac-KRRRRQAVAIYF; not fully specified (residue 1); also: homodimer via Ida linker on Lys side chains, linker at 1 via Ida, other end not in the chain) [compound 459]” to “464 (Ac-ARRERQAVAIYFK(Ida(3)); not fully specified (C-terminus); also: homodimer via Ida linker on Lys side chains, linker at 13 via Ida, other end not in the chain) [compound 464]”, the pIC50 rises from < 4.52 to > 5.00.

Compared with RKRKKQRVKIAYEEIF [compound 67], “484 (Ac-ARRRNQAVAIKF; not fully specified (residue 11); also: homodimer: Lys11 side chain bound to Ida linker (Boc on Ida N)) [compound 484]” is higher in pIC50: < 4.52 for the first, > 5.00 for the second. The second is the more potent here.

“216 (Ac-ARRRRQAVAIIF; also: dimer: Phe C-termini joined via Lys linker) [compound 216]” and “474 (Ac-PRRRMQAVAIYFK(Ida(3)); not fully specified (C-terminus); also: homodimer via Ida linker on Lys13 side chain) [compound 474]” fall in the same range of pIC50: 4.52 to 5.00 for the first, 4.52 to 5.00 for the second.

Compared with RKKQQRVKIAYEEIFV [compound 78], “461 (Ac-ARRRK(Ida(3))QAVAIYF; also: homodimer via Ida linker on Lys side chains, linker at 5 via Ida, other end not in the chain) [compound 461]” is higher in pIC50: < 4.52 for the first, 4.52 to 5.00 for the second. The second is the more potent here.

“405 (Ac-LRRRRQAVAIYFK(Ida(3))-NH2; also: homodimer via Ida linker on Lys13 side chain, Boc on Ida amine) [compound 405]” and “205 (Ac-RRARRQRVAIIF; also: dimer: Phe C-termini joined via Lys linker) [compound 205]” cannot be ordered by pIC50: > 5.00 for the first, > 5.00 for the second.

Going from RKKQRVKIIFV [compound 89] to “362 (Ac-ARRRRQRVA[Cha]YFK-NH2; not fully specified (residue 13); also: homodimer: Lys13 side chains joined by Ida (iminodiacetic acid) linker) [compound 362]”, the pIC50 rises from < 4.52 to > 5.00.

KTKRKRKKQRVKIIFVQNA [compound 105] and “508 (Ac-CNGRCGGARRRRQRVAIYFK; not fully specified (C-terminus); cysteine pairing not given here; also: homodimer via Ida linker at Lys20 side chain) [compound 508]” cannot be ordered by pIC50: > 5.00 for the first, > 5.00 for the second.

Going from “226 (Ac-ARRRRQRVAITFK; also: homodimer via Ida linker on side chain of Lys13) [compound 226]” to KTKRKRIKQRVKRAYEEIF [compound 137], the pIC50 falls from > 5.00 to < 4.52. The first is the more potent here.

“487 (Ac-ARRRRQPVAIKF; not fully specified (residue 11); also: homodimer: Lys11 side chain bound to Ida linker (Boc on Ida N)) [compound 487]” and “496 (Ac-PRHRRQAVAIYFK(Ida″); not fully specified (C-terminus); also: homodimer via Ida linker on Lys13 side chain) [compound 496]” fall in the same range of pIC50: 4.52 to 5.00 for the first, 4.52 to 5.00 for the second.

Compared with KTKRARKKQRVKIIFVQNM [compound 119], “222 (XHHHHQAVAIIF; Xaa = Acylated Histidine; Dimeric peptide wherein the C terminus of Phe in position 12 of one peptide chain is covalently bound to one of the amino groups of a Lysine linker and Phe of the remaining peptide chain is covalently bound to the other amino group of the Lysine linker.) [compound 222]” is lower in pIC50: > 5.00 for the first, < 4.52 for the second. The first is the more potent here.

“219 (Ac-RRARRQAVAIIF; also: dimer: Phe C-termini joined via Lys linker) [compound 219]” and “402 (Ac-FRRRRQAVAIYFK(Ida(3))-NH2; also: homodimer via Ida linker on Lys13 side chain, Ida amine Boc) [compound 402]” cannot be ordered by pIC50: > 5.00 for the first, > 5.00 for the second.

“416 (Ac-ARRRRQAVRIKF; not fully specified (residue 11); also: homodimer via Ida linker on Lys side chains, linker at 11 via Ida, other end not in the chain) [compound 416]” and “302 (Ac-RRRRRQAVRIAIAFK(Ida)-NH2; also: homodimer via Ida linker on Lys15 side chain) [compound 302]” cannot be ordered by pIC50: > 5.00 for the first, > 5.00 for the second.

First: 339 (Ac-RRHHRQHVRIYFK(Ida(3))-NH2; also: homodimer via Lys13 side chain, Ida linker (Ida amino group Boc)) [compound 339]
Second: 477 (Ac-PRRRSQAVAIYFK(Ida(3)); not fully specified (C-terminus); also: homodimer via Ida linker on Lys13 side chain) [compound 477]
The pIC50 of the first is higher: > 5.00 for the first, 4.52 to 5.00 for the second.

First: KKQRVKIAYEEIFVKNM [compound 12]
Second: KTKRKRKKQRVKIAYEEI [compound 17]
The pIC50 of the first is higher: > 5.00 for the first, 4.52 to 5.00 for the second.

First: 217 (Ac-AHHHHQHVAIIF; also: dimer: Phe C-termini joined via Lys linker) [compound 217]
Second: 166 (Biotin-TKRKRKKQRVKIIFV; also: Thr1 biotinylated) [compound 166]
The pIC50 of the first is lower: < 4.52 for the first, 4.52 to 5.00 for the second.

“173 (Ac-ARRRRQRVRIIF; also: homodimer: C-terminal Phe12 of each chain bound to one amino group of a Lys linker) [compound 173]” and “406 (Ac-MRRRRQAVAIYFK; not fully specified (residue 13, C-terminus); also: homodimer via Ida linker on Lys side chains, linker at 13 via Ida, other end not in the chain) [compound 406]” cannot be ordered by pIC50: > 5.00 for the first, > 5.00 for the second.

Compared with “458 (Ac-KARRRRQAVAIYF; not fully specified (residue 1); also: homodimer via Ida linker on Lys side chains, linker at 1 via Ida, other end not in the chain) [compound 458]”, “482 (Ac-PRRRRQAVAIKF; not fully specified (residue 11); also: homodimer via Ida linker on Lys11 side chain) [compound 482]” is higher in pIC50: < 4.52 for the first, > 5.00 for the second.

“387 (Ac-ARRRRQAVEIYFK-NH2; not fully specified (residue 13); also: homodimer via Ida linker on Lys13 side chain, Ida amine Boc) [compound 387]” and “221 (Ac-RRRRAQAVAIIF; also: dimer: Phe C-termini joined via Lys linker) [compound 221]” cannot be ordered by pIC50: > 5.00 for the first, > 5.00 for the second.

Going from KRKKQRVKIIFV [compound 88] to “325 (Ac-RRRHRQHVRIYFK; not fully specified (residue 13, C-terminus); also: homodimer via Ida linker on Lys13 side chain) [compound 325]”, the pIC50 rises from < 4.52 to > 5.00.

“194 (Ac-ARRRAQRVRIIF; also: dimer: C-terminal Phe bound to an amino group of a Lys linker, 2 chains per Lys) [compound 194]” was tested, and the pIC50 was > 5.00.
